Data published in publication PMC5266543 (ACS infectious diseases, 2016).
Converted amounts (≈) assume the structure as drawn. “Also recorded” adds a separate entry of the source. Read-outs that look alike come from different tables or passages of the source. Marks after values point to notes of the source that are not given here.

What was measured:
[1] = system: M. tuberculosis H37Rv; experiment: microbe, parasite or virus in culture; assay type: cell-based, Mycobacterium tuberculosis; conditions: for MIC: Mycobacterium tuberculosis, H37RV, read-out: M. tuberculosis MIC
[2] = system: Dxr; conditions: cited from earlier work
[3] = target: T1, Mtb Dxr (Mycobacterium tuberculosis, UniProt P9WNS1); assay type: biochemical; conditions: for IC50: read-out: Mtb Dxr IC50
T1 sequence (P9WNS1 1-413): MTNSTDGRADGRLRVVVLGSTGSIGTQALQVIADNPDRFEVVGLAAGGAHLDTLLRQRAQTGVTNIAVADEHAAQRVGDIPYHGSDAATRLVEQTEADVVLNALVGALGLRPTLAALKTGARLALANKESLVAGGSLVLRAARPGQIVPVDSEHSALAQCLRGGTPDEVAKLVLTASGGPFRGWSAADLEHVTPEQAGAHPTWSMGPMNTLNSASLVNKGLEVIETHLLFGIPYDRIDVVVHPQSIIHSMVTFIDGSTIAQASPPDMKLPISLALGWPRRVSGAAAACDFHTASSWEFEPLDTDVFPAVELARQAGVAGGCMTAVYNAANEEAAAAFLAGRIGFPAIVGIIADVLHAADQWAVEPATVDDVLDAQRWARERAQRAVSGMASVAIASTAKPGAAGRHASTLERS

[4] = target: Yp Dxr (Yersinia pestis, UniProt Q8ZH62); assay type: biochemical; conditions: for IC50: read-out: Yp Dxr IC50
Sequence of Yp Dxr (Q8ZH62 whole entry, looked up): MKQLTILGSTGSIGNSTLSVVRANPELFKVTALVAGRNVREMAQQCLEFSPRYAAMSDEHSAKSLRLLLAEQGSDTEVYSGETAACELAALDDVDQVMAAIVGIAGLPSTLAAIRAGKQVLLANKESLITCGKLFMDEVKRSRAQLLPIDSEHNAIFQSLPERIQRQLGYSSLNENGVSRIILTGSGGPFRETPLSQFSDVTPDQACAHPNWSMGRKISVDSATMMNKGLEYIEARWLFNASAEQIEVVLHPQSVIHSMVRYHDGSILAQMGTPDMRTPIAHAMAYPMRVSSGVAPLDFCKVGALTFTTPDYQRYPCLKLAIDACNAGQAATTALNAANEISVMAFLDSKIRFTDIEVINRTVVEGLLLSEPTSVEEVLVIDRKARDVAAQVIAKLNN

[5] = system: Yp; assay type: cell-based, Yersinia pestis
[6] = system: E. coli MG1655; assay type: cell-based, Escherichia coli

SMILES | M. tuberculosis MIC [1] | inhibition of Mtb Dxr (in words) [3] | percent remaining enzyme activity at 100 µM (Mtb Dxr) [3] | inhibition of Yp Dxr (in words) [4] | further results
O=CN(O)CCCP(=O)(O)O [Compound 1, fosmidomycin, reference compound] | – | – | – | – | MIC [1]: > 500 µg/mL; mechanism of inhibition [2]: competitive inhibitors with respect to DXP and uncompetitive relative to NADPH
CC(=O)N(O)CCCP(=O)(O)O [Compound 2, FR900098] | >500 µg/mL | – | – | – | IC50 [3]: 2.91 µM; IC50 [4]: 0.23 µM; growth inhibition activity (in words) [5]: potently inhibits bacterial propagation in a dose-dependent manner; growth inhibition activity (in words) [6]: potently inhibits bacterial propagation in a dose-dependent manner; mechanism of inhibition [2]: competitive inhibitors with respect to DXP and uncompetitive relative to NADPH
CCCCC(=O)N(O)CCCP(=O)([O-])O.[Na+] [Compound 8a, Sodium hydrogen-3-(N-hydroxypentanamido)propyl phosphonate] | – | greatest inhibition | – | – | –
CCCCCCC(=O)N(O)CCCP(=O)([O-])O.[Na+] [Compound 8b, Sodium hydrogen-3-(N-hydroxyheptanamido)propyl phosphonate] | – | inhibited; also recorded: greatest inhibition | (43) ^* percent | inhibited; also recorded: most active | percent remaining enzyme activity at 100 µM (Yp Dxr) [4]: (27) percent
O=C(CCC1CCCCC1)N(O)CCCP(=O)([O-])O.[Na+] [Compound 8d, Sodium hydrogen-3-(3-cyclohexyl-N-hydroxypropanamido)propyl phosphonate] | >200 (25) µg/mL | – | – | – | –
O=C(c1ccccc1)N(O)CCCP(=O)([O-])O.[Na+] [Compound 8e, Sodium hydrogen-3-(N-hydroxybenzamido)propyl phosphonate] | ≥200 µg/mL | – | (70) percent | most active | inhibitor modality (Lineweaver-Burk) [4]: competitive with both NADPH and DXP; selectivity between Dxr homologs (Yp versus Mtb) [4]: significantly more potent against Yp Dxr; Ki ([4]; read-out: Ki relative to DXP): 7.9 µM; Ki ([4]; read-out: Ki with respect to NADPH): 1.8 µM; IC50 [4]: 4.45 µM
Cc1ccc(C(=O)N(O)CCCP(=O)([O-])O)cc1.[Na+] [Compound 8f, Sodium hydrogen-3-(N-hydroxy-4-methylbenzamido)propyl phosphonate] | – | – | (74) percent | most active | selectivity between Dxr homologs (Yp versus Mtb) [4]: significantly more potent against Yp Dxr; IC50 [4]: 16 µM
O=C(CCCc1ccccc1)N(O)CCCP(=O)([O-])O.[Na+] [Compound 8h, Sodium hydrogen-3-(N-hydroxy-4-phenylbutanamido)propyl phosphonate] | >200 µg/mL | greatest inhibition | – | most active | IC50 [3]: 17.8 µM; percent remaining enzyme activity at 100 µM (Yp Dxr) [4]: (34) percent; binding modality [2]: competitively with DXP but noncompetitively with NADPH
O=C(COc1ccc(Cl)cc1)N(O)CCCP(=O)([O-])O.[Na+] [Compound 8l, Sodium hydrogen-3-(2-(4-chlorophenoxy)-N-hydroxyacetamido)propyl phosphonate] | >200 (25) µg/mL | – | – | – | –
O=C(N(O)CCCP(=O)([O-])O)N(c1ccccc1)c1ccccc1.[Na+] [Compound 8n, Sodium hydrogen-3-(1-hydroxy-3,3-diphenylureido)propyl phosphonate] | – | ineffective | – | ineffective | –
CC(=O)N(CCCP(=O)([O-])O)OCc1ccc(C(C)C)cc1.[Na+] [Compound 16d, Sodium Hydrogen 3-(N-((4-isopropylbenzyl)oxy)acetamido)propyl phosphonate] | 200 (25) µg/mL | potent inhibitors; also recorded: greatest inhibition | – | potent inhibitors; also recorded: most active | IC50 [3]: 48.4 µM; selectivity between Dxr homologs (Yp versus Mtb) [4]: more potent against Yp Dxr; IC50 [4]: 1.19 µM
CC(=O)N(CCCP(=O)([O-])O)OC(C)c1ccccc1.[Na+] (stereo not shown) [Compound 16e, Sodium Hydrogen 3-(N-(1-phenylethoxy)acetamido)propyl phosphonate] | – | greatest inhibition | (38.1) percent | most active | percent remaining enzyme activity at 100 µM (Yp Dxr) [4]: (19) percent
CC(=O)N(CCCP(=O)([O-])O)OCCc1ccc(O)cc1.[Na+] [Compound 16g, Sodium Hydrogen 3-(N-(4-hydroxyphenethoxy)acetamido)propyl phosphonate] | – | – | (59) percent | most active | percent remaining enzyme activity at 100 µM (Yp Dxr) [4]: (22) percent; selectivity between Dxr homologs (Yp versus Mtb) [4]: same trend
CC(=O)N(CCCP(=O)([O-])O)OCCCCc1ccccc1.[Na+] [Compound 16h, Sodium Hydrogen 3-(N-(4-phenylbutoxy)acetamido)propyl phosphonate] | ≥200 µg/mL | – | – | – | –
CC(=O)N(CCCP(=O)([O-])O)OCc1cccc2ccccc12.[Na+] [Compound 16i, Sodium Hydrogen 3-(N-(naphthalen-1-ylmethoxy)acetamido)propyl phosphonate] | – | greatest inhibition | (29) percent | most active | selectivity between Dxr homologs (Yp versus Mtb) [4]: more potent against Yp Dxr; IC50 [4]: 22.4 µM
CC(=O)N(CCCP(=O)([O-])O)OCc1ccc2ccccc2c1.[Na+] [Compound 16j, Sodium Hydrogen 3-(N-(naphthalen-2-ylmethoxy)acetamido)propyl phosphonate] | ≥200 µg/mL | potent inhibitors; also recorded: greatest inhibition | – | potent inhibitors; also recorded: most active | inhibitor modality (Lineweaver-Burk) [3]: competitive with both NADPH and DXP; Ki ([3]; read-out: Ki relative to NADPH): 17.8 µM; Ki ([3]; read-out: Ki with respect to DXP): 1 µM; IC50 [3]: 1.45 µM; IC50 [4]: 0.33 µM
CC(=O)N(CCCP(=O)([O-])O)OCc1ccc(-c2ccccc2)cc1.[Na+] [Compound 16k, Sodium Hydrogen 3-(N-([1,1'-biphenyl]-4-ylmethoxy)acetamido)propyl phosphonate] | 25 to 50 µg/mL | potent inhibitors; also recorded: greatest inhibition | (36.8) percent | potent inhibitors; also recorded: most active | selectivity between Dxr homologs (Yp versus Mtb) [4]: more potent against Yp Dxr; IC50 [4]: 8.4 µM
CC(=O)N(CCCP(=O)([O-])O)OCc1ccc(-c2ccc(C(C)C)cc2)cc1.[Na+] [Compound 16p, Sodium Hydrogen 3-(N-((4'-isopropyl-[1,1'-biphenyl]-4-yl)methoxy)acetamido)propyl phosphonate] | 100 (6.25–12.5) µg/mL | – | – | – | –
CC(=O)N(CCCP(=O)([O-])O)OCc1ccc(-c2ccc(C(F)(F)F)cc2)cc1.[Na+] [Compound 16r, Sodium Hydrogen 3-(N-((4'-(trifluoromethyl)-[1,1'-biphenyl]-4-yl)methoxy)acetamido)propyl phosphonate] | – | – | (70) percent | most active | percent remaining enzyme activity at 100 µM (Yp Dxr) [4]: (19) percent
CC(=O)N(CCCP(=O)(OCOC(=O)C(C)(C)C)OCOC(=O)C(C)(C)C)OCc1ccc(C(C)C)cc1 [Compound 17, [({[(2,2-dimethylpropanoyl)oxy]methoxy}[3-(N-{[4-(propan-2-yl)phenyl]methoxy}acetamido)propyl]phosphoryl)oxy]methyl 2,2-dimethyl propanoate] | 12.5 (6.25–12.5) µg/mL | – | – | – | –
CC(=O)N(CCCP(=O)(OCOC(=O)C(C)(C)C)OCOC(=O)C(C)(C)C)OCCCCc1ccccc1 [Compound 18, [({[(2,2-dimethylpropanoyl)oxy]methoxy}({3-[N-(4-phenylbutoxy)acetamido]propyl})phosphoryl)oxy]methyl 2,2-dimethylpropanoate] | – | – | – | – | MIC [1]: 12.5 µg/mL (≈ 22.4 µM)
CC(=O)N(CCCP(=O)(OCOC(=O)C(C)(C)C)OCOC(=O)C(C)(C)C)OCc1ccc(-c2ccccc2)cc1 [Compound 19, [({[(2,2-dimethylpropanoyl)oxy]methoxy}(3-{N-[(4-phenylphenyl)methoxy]acetamido}propyl)phosphoryl)oxy]methyl 2,2-dimethyl propanoate] | 12.5 (3.13–6.25) µg/mL | – | – | – | –
CC(=O)N(CCCP(=O)(OCOC(=O)C(C)(C)C)OCOC(=O)C(C)(C)C)OCc1ccc2ccccc2c1 [Compound 20, [({[(2,2-dimethylpropanoyl)oxy]methoxy}({3-[N-(naphthalen-2-ylmethoxy)acetamido]propyl})phosphoryl)oxy]methyl 2,2-dimethylpropanoate] | 18.75 (4.7) µg/mL | – | – | – | –
CC(=O)N(CCCP(=O)(OCOC(=O)c1ccccc1)OCOC(=O)c1ccccc1)OCCCCc1ccccc1 [Compound 21, [({[(benzoyl)oxy]methoxy}({3-[N-(4-phenylbutoxy)acetamido]propyl})phosphoryl)oxy]methyl benzoate] | – | – | – | – | MIC [1]: 25 µg/mL (≈ 41.8 µM)
NNC(=O)c1ccncc1 [INH, reference compound] | 0.01 µg/mL | – | – | – | –
